From ChEMBL document CHEMBL1137581, “Synthesis of 1-deoxy-1-hydroxymethyl- and 1-deoxy-1-epi-hydroxymethyl castanospermine as new potential immunomodulating agents” (2007) come the findings set out here.

The source made the active and inactive calls. No cut-off for these calls is given here.

Test [1] has as its target Mannosyl-oligosaccharide 1,2-alpha-mannosidase IA (Homo sapiens) (UniProt P33908). Description: Inhibition of human alpha mannosidase.
Test [2] concerns the target T1, Alpha-galactosidase A (Homo sapiens) (UniProt P06280).
T1 sequence (whole entry): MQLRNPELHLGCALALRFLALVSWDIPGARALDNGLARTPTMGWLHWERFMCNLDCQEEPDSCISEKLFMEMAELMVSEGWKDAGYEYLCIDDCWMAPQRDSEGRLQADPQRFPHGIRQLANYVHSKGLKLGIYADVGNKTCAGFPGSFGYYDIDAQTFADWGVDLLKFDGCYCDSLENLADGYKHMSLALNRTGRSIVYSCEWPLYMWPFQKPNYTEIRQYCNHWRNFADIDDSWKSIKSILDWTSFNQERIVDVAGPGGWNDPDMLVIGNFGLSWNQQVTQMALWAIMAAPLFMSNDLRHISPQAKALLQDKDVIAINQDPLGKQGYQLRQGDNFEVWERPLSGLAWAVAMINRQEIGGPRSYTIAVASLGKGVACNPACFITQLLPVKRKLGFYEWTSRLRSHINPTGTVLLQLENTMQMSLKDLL
Description: Inhibition of human alpha galactosidase.

For test [3], the target named is T2, Neutral alpha-glucosidase AB (Homo sapiens) (UniProt Q14697).
T2 sequence (whole entry): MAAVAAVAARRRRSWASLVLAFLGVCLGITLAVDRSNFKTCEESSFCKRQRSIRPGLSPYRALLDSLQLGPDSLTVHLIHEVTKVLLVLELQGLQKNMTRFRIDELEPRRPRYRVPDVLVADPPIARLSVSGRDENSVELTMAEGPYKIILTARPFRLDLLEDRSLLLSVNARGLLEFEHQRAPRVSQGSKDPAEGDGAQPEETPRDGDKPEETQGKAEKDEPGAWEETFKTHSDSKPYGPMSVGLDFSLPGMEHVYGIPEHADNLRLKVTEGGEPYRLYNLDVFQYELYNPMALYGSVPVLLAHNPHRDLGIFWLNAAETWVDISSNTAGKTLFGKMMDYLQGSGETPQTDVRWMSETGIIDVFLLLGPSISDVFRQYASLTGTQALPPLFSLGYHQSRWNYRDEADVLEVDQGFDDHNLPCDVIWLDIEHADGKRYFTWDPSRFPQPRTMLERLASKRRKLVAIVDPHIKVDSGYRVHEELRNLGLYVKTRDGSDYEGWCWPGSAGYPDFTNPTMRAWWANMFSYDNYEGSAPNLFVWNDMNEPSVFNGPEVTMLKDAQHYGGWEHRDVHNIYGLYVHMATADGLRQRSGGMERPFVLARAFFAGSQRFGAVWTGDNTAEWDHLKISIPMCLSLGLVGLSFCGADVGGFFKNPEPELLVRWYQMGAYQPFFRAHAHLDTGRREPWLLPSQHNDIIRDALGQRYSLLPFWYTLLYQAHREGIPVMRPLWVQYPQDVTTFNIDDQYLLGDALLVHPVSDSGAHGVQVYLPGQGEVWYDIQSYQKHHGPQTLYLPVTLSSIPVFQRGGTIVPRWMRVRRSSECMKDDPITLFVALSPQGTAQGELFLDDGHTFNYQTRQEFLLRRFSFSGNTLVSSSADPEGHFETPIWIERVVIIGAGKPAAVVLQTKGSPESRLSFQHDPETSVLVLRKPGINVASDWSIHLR
Description: Inhibition of human alpha glucosidase.

Test [4] is filed under the species Homo sapiens. Description: Inhibition of human beta glucosidase.
For test [5], the species on record is Homo sapiens. Description: Inhibition of human beta galactosidase.
Test [6] can be described thus: Enhancement of ConA-induced proliferation in Swiss Albino mouse splenocyte at 5 uM after 72 hrs by MTT assay relative to control. The format is functional. Background: Tetrazolium dyes change colour on reduction, which living cells bring about.
A short description of test [7]: Enhancement of ConA-induced proliferation in Swiss Albino mouse splenocyte at 10 uM after 72 hrs by MTT assay relative to control. The format is functional.
Test [8] can be described thus: Enhancement of ConA-induced proliferation in Swiss Albino mouse splenocyte at 20 uM after 72 hrs by MTT assay relative to control. The format is functional.
Test [9] is described as follows: (§1) Enhancement of ConA-induced proliferation in Swiss Albino mouse splenocyte at 75 uM after 72 hrs by MTT assay relative to control. The format is functional.
Test [10] can be described thus: Enhancement of ConA-induced proliferation in Swiss Albino mouse splenocyte at 100 uM after 72 hrs by MTT assay relative to control. The test is classed as functional.
Test [11] in a line: Reduction of ConA-induced IL4 secretion in Swiss Albino mouse splenocytes by ELISA relative to control. Set-up: scale not given: the % may be the effect or the level left. The test is classed as functional, Splenocyte. For orientation: In an ELISA, binding on a coated surface is turned into a signal by an enzyme label.
A short description of test [12]: Enhancement of ConA-induced IL6 secretion in Swiss Albino mouse splenocytes by ELISA relative to control. The test is classed as functional, Splenocyte.
A short description of test [13]: Enhancement of ConA-induced IFN-gamma secretion in Swiss Albino mouse splenocytes by ELISA relative to control. The test is classed as functional, Splenocyte.
Test [14] in a line: Enhancement of ConA-induced IL2 secretion in Swiss Albino mouse splenocytes by ELISA relative to control. The test is classed as functional, Splenocyte.
For test [15], the system named is Splenocyte. The test is described as §1. The test is classed as functional.

Sequence of Mannosyl-oligosaccharide 1,2-alpha-mannosidase IA (Homo sapiens) (P33908 whole entry): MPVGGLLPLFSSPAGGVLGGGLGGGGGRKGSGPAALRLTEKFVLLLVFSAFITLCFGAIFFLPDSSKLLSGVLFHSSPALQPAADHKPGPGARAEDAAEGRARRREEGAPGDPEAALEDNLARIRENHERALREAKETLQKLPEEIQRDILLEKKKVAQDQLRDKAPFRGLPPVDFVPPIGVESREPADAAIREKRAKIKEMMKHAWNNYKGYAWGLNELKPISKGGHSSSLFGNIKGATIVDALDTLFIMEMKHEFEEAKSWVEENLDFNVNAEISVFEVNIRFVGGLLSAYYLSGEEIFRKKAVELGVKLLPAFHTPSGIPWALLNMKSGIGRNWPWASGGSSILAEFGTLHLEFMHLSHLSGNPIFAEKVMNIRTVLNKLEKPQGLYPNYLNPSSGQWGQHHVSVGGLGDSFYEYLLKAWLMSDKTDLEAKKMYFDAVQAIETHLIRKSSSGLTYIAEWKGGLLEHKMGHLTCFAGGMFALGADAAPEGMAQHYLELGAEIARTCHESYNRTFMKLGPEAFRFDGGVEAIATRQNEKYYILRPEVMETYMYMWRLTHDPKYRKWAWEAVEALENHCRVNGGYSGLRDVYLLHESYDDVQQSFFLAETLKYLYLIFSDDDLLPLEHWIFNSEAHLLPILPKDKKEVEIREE

For the compound `OC[C@@H]1CCN2C[C@H](O)[C@@H](O)[C@H](O)[C@@H]12`, the outcome in test [1], in test [2], in [3], in [4] and in [5] was inactive. In addition, the Activity is 19% in test [6]; 61% in test [7]; 69% in test [8]; 41% in test [9]; 31% in test [10]; 47% in test [11]. Further, the values for the Activity in test [13] and in [14] were 9.5% and 3.3%, respectively. In addition, in test [12], the Ratio was more than 9.

Take `OC[C@H]1CCN2C[C@H](O)[C@@H](O)[C@H](O)[C@@H]12`: the outcome in test [1], in test [2], in test [3], in test [4], in test [5] and in test [15] was inactive. Further, the Activity in [6] stood at 161%; in [7], 109%; in test [8] it was 40%; in [10], 27%; in test [11], 20.6%; in test [13], 40.5%. Moreover, the Activity in [14] amounted to 6.6%. For the same compound, the Ratio in test [12] is on record as more than 5.5.
